Laboratory results from patent US9815831B2, “3,5-disubstituted-3H-imidazo[4,5-B]pyridine and 3,5-disubstituted-3H-[1,2,3]triazolo[4,5-B] pyridine compounds as modulators of c-Met protein kinases” (Rhizen Pharmaceuticals SA, priority 2012, dated 2017).
pIC50: −log10 of the molar value. Where two headings read alike, the source gives them in different places.

Assays:
[1] = target: T1, human recombinant Met kinase (Homo sapiens, UniProt P08581); assay: Colorimetric determination of c-Met kinase activity (HTScan Met Kinase Assay Kit); assay type: biochemical; conditions: for inhibition at 0.1 µM: 100 nM (cells without *), read-out: c-Met Enzyme % inhibition @ 100 nM; for inhibition: cells marked *: tested @ 300 nM, read-out: c-Met Enzyme % inhibition
T1 construct: purchased Cell Signalling Technology, Beverly, Mass
T1 sequence (P08581 25-1390): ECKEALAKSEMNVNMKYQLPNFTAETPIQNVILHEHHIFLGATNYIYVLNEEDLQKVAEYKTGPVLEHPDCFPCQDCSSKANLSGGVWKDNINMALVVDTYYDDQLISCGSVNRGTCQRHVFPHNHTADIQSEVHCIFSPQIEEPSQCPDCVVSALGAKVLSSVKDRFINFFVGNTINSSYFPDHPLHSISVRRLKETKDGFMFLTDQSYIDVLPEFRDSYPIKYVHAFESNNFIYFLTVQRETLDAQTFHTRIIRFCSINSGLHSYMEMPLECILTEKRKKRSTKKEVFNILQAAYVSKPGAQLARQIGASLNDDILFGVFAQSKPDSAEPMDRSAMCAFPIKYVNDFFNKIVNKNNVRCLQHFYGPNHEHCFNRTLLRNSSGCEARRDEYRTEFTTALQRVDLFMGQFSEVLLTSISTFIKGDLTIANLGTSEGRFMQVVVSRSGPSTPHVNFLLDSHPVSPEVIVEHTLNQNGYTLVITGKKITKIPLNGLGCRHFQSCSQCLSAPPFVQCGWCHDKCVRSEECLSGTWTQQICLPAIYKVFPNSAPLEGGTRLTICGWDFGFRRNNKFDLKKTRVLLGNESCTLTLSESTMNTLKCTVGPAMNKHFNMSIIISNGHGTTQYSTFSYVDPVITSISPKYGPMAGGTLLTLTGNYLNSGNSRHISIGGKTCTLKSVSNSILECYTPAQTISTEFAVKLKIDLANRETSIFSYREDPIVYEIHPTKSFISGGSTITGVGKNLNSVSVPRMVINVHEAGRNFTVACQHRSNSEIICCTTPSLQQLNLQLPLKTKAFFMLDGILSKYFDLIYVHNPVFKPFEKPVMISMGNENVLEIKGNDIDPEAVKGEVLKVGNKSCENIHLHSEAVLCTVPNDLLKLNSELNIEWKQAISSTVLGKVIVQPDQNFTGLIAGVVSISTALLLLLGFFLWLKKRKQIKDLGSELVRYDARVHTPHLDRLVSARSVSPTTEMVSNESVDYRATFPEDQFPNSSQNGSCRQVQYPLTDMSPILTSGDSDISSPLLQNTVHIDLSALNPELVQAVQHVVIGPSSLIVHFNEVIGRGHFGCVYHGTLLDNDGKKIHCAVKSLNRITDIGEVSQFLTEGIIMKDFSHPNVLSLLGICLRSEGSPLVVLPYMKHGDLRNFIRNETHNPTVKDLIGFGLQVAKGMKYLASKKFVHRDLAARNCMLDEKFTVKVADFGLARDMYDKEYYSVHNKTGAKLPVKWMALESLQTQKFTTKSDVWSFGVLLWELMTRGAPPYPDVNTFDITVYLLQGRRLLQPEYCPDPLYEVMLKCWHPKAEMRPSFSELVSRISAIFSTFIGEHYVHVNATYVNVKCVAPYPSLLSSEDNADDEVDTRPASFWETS
In short: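 Human recombinant Met kinase was preincubated with compound for 5 min at room temperature, then reacted with ATP and biotinylated peptide for 30 min; EDTA stop. Phosphopeptide captured on streptavidin and detected with phospho-tyrosine mAb and europium anti-mouse IgG by time-resolved fluorescence (340/615 nm). Reported as % inhibition or IC50.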

MKN-45 = assay: Inhibition of MKN-45 proliferation (MTT); assay type: cell-based, human; conditions: Homo sapiens, MKN-45 proliferation; for inhibition at 0.1 µM: 100 nM, read-out: MKN45 % inhibition @ 100 nM; for GI50: read-out: MKN45 GI50
In short: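 High-Met human gastric adenocarcinoma MKN-45 cells plated on day 1 and exposed to compound from day 2. Viability measured by MTT dye reduction on day 5; output given as % inhibition at 100 nM and GI50.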

[2] = target: T1, human recombinant Met kinase; assay: Colorimetric determination of c-Met kinase activity (HTScan Met Kinase Assay Kit); assay type: biochemical; conditions: read-out: c-Met Enzyme IC50

What does the source list for Cc1ccc2cc(Cn3nnc4ccc(-c5ccc(C(=O)NOCCO)c(Cl)c5)nc43)ccc2n1 [Example 17, 2-chloro-N-(2-hydroxyethoxy)-4-(3-((2-methylquinolin-6-yl)methyl)-3H-[1,2,3]triazolo[4,5-b]pyridin-5-yl) benzamide]?
inhibition at 0.1 µM ([1]; Table 4A): < 25%; melting point: 219 to 222 °C

For C[C@H](O)CNC(=O)c1ccc(-c2ccc3ncn(Cc4ccc5ncccc5c4)c3n2)cc1F [Example 110, (S)-2-fluoro-N-(2-hydroxypropyl)-4-(3-(quinolin-6-ylmethyl)-3H-imidazo[4,5-b]pyridin-5-yl)benzamide], which inhibition at 0.1 µM ([1]; Table 4B) is on record?
Its inhibition at 0.1 µM is 75 to 100%.

What about the melting point of the same molecule?
The melting point was 166 to 169 °C.

Which inhibition at 0.1 µM (MKN-45; MKN-45, Table 4C) does the source give for Cc1cc(-c2ccc3ncn(Cc4c(F)cc5ncccc5c4F)c3n2)ccc1C(N)=O [Example 1027, 4-[3-(5,7-Difluoro-quinolin-6-ylmethyl)-3H-imidazo[4,5-b]pyridin-5-yl]-2-methyl-benzamide] here?
The inhibition at 0.1 µM was 75 to 100%.

And the inhibition at 0.1 µM ([1]; Table 4C)?
Its inhibition at 0.1 µM is 75 to 100%.

What about the melting point of the same molecule?
The melting point was 158 to 160 °C.

What does the source list for NC(=O)c1ccc(-c2ccc3ncn(Cc4cc5cccnc5cc4F)c3n2)cc1C(F)(F)F [Example 1026, 4-[3-(7-Fluoro-quinolin-6-ylmethyl)-3H-imidazo[4,5-b]pyridin-5-yl]-2-trifluoromethyl-benzamide]?
inhibition at 0.1 µM ([1]; Table 4C): 25 to 50%; melting point: 239 to 241 °C

Which inhibition at 0.1 µM ([1]; Table 4A) does the source give for CC(C)(C)C(=O)OCCONC(=O)c1ccc(-c2ccc3nnn(Cc4ccc5ncccc5c4)c3n2)cc1Cl [Example 14, 2-(2-chloro-4-(3-(quinolin-6-ylmethyl)-3H-[1,2,3]triazolo[4,5-b]pyridin-5-yl)benzamidooxy)ethyl pivalate] here?
Its inhibition at 0.1 µM is 75 to 100%.

And the melting point?
Its melting point is 130 to 133 °C.

Which inhibition at 0.1 µM ([1]; Table 4A) does the source give for CC(C)C(=O)OCCONC(=O)c1ccc(-c2ccc3nnn(Cc4ccc5ncccc5c4)c3n2)cc1Cl [Example 15, 2-(2-chloro-4-(3-(quinolin-6-ylmethyl)-3H-[1,2,3]triazolo[4,5-b]pyridin-5-yl)benzamidooxy)ethyl isobutyrate] here?
Its inhibition at 0.1 µM is 75 to 100%.

And the melting point?
Its melting point is 115 to 118 °C.

Which results are given for O=C(NOCCO)c1ccc(-c2ccc3nnn(Cc4ccc5ncsc5c4)c3n2)cc1F [Example 20, 4-(3-(benzo[d]thiazol-6-ylmethyl)-3H-[1,2,3]triazolo[4,5-b]pyridin-5-yl)-2-fluoro-N-(2-hydroxyethoxy)benzamide]?
inhibition at 0.1 µM (MKN-45; MKN-45, Table 4A): 75 to 100%; GI50 (MKN-45; MKN-45, Table 4A): 50 to 100 nM; pIC50 ([2]; Table 4A): 7.30 to 7.60; inhibition at 0.1 µM ([1]; Table 4A): 75 to 100%; melting point: 164 to 166 °C

With Cc1ccc2cc(Cn3nnc4ccc(-c5cc(F)c(C(=O)NOCCO)c(F)c5)nc43)ccc2n1 [Example 21, 2,6-difluoro-N-(2-hydroxyethoxy)-4-(3-((2-methylquinolin-6-yl)methyl)-3H-[1,2,3]triazolo[4,5-b]pyridin-5-yl) benzamide] as the molecule, how does the inhibition at 0.1 µM (MKN-45; MKN-45, Table 4A) read?
The inhibition at 0.1 µM was < 25%.

What about the pIC50 ([2]; Table 4A) of the same molecule?
Its pIC50 is 7.30 to 7.60.

And the inhibition at 0.1 µM ([1]; Table 4A)?
Its inhibition at 0.1 µM is 75 to 100%.

What about the melting point of the same molecule?
The melting point was 208 to 210 °C.

For Cc1cc(-c2ccc3nnn(Cc4ccc5c(ccc[n+]5[O-])c4)c3n2)ccc1C(=O)NOCC(C)(C)O [Example 41, N-(2-Hydroxy-2-methyl-propoxy)-2-methyl-4-[3-(1-oxy-quinolin-6-ylmethyl)-3H-[1,2,3]triazolo[4,5-b]pyridin-5-yl]-benzamide], which melting point is on record?
Its melting point is 160 to 162 °C.

For CNC(=O)c1ccc(-c2ccc3ncn(Cc4ccc5ncccc5c4)c3n2)cn1 [Example 1031, 5-(3-Quinolin-6-ylmethyl-3H-imidazo[4,5-b]pyridin-5-yl)-pyridine-2-carboxylic acid methylamide], which inhibition at 0.1 µM ([1]; Table 4C) is on record?
Its inhibition at 0.1 µM is < 25%.

What about the melting point of the same molecule?
Its melting point is 219 to 221 °C.

With C[C@H](N)C(=O)OCCONC(=O)c1ccc(-c2ccc3nnn(Cc4ccc5ncccc5c4)c3n2)cc1Cl [Example 13, (S)-2-(2-chloro-4-(3-(quinolin-6-ylmethyl)-3H-[1,2,3]triazolo[4,5-b]pyridin-5-yl)benzamidooxy)ethyl 2-aminopropanoate] as the molecule, how does the inhibition at 0.1 µM ([1]; Table 4A) read?
The inhibition at 0.1 µM was 75 to 100%.

What about the melting point of the same molecule?
Its melting point is 175 to 177 °C.

For O=C(NOCCO)c1ccc(-c2ccc3nnn(Cc4ccc5ncccc5c4)c3n2)cc1F [Example 10, 2-fluoro-N-(2-hydroxyethoxy)-4-(3-(quinolin-6-ylmethyl)-3H-[1,2,3]triazolo[4,5-b]pyridin-5-yl)benzamide], which inhibition at 0.1 µM (MKN-45; MKN-45, Table 4A) is on record?
Its inhibition at 0.1 µM is 75 to 100%.

And the GI50 (MKN-45; MKN-45, Table 4A)?
Its GI50 is 25 to 50 nM.

And the pIC50 ([2]; Table 4A)?
The pIC50 was 7.30 to 7.60.

And the inhibition at 0.1 µM ([1]; Table 4A)?
The inhibition at 0.1 µM was 75 to 100%.

And the melting point?
The melting point was 200 to 203 °C.

With O=C(NOCCO)c1ccc(-c2ccc3nnn(Cc4ccc5ncsc5c4)c3n2)cc1Cl [Example 18, 4-(3-(benzo[d]thiazol-6-ylmethyl)-3H-[1,2,3]triazolo[4,5-b]pyridin-5-yl)-2-chloro-N-(2-hydroxyethoxy)benzamide] as the molecule, how does the inhibition at 0.1 µM (MKN-45; MKN-45, Table 4A) read?
The inhibition at 0.1 µM was 25 to 50%.

What about the GI50 (MKN-45; MKN-45, Table 4A) of the same molecule?
The GI50 was 50 to 100 nM.

What about the pIC50 ([2]; Table 4A) of the same molecule?
Its pIC50 is 7.30 to 7.60.

And the inhibition at 0.1 µM ([1]; Table 4A)?
The inhibition at 0.1 µM was 50 to 75%.

What about the melting point of the same molecule?
Its melting point is 194 to 196 °C.

With NC(=O)c1ccc(-c2ccc3ncn(Cc4ccc5ncccc5c4)c3n2)cc1C(F)(F)F [Example 1024, 4-(3-Quinolin-6-ylmethyl-3H-imidazo[4,5-b]pyridin-5-yl)-2-trifluoromethyl-benzamide] as the molecule, how does the GI50 (MKN-45; MKN-45, Table 4C) read?
The GI50 was 100 to 250 nM.

What about the pIC50 ([2]; Table 4C) of the same molecule?
Its pIC50 is > 7.60.

And the inhibition at 0.1 µM ([1]; Table 4C)?
The inhibition at 0.1 µM was 75 to 100%.

And the melting point?
Its melting point is 243 to 245 °C.

For C[C@@H](O)CNC(=O)c1ccc(-c2ccc3ncn(Cc4ccc5ncccc5c4)c3n2)cc1F [Example 109, (R)-2-fluoro-N-(2-hydroxypropyl)-4-(3-(quinolin-6-ylmethyl)-3H-imidazo[4,5-b]pyridin-5-yl)benzamide], which inhibition at 0.1 µM ([1]; Table 4B) is on record?
The inhibition at 0.1 µM was 75 to 100%.

And the melting point?
The melting point was 151 to 158 °C.

For O=C(CNC(=O)c1ccccc1)OCCONC(=O)c1ccc(-c2ccc3nnn(Cc4ccc5ncccc5c4)c3n2)cc1Cl [Example 16, 2-(2-chloro-4-(3-(quinolin-6-ylmethyl)-3H-[1,2,3]triazolo[4,5-b]pyridin-5-yl)benzamidooxy)ethyl 2-benzamidoacetate], which inhibition at 0.1 µM ([1]; Table 4A) is on record?
The inhibition at 0.1 µM was 75 to 100%.

And the melting point?
Its melting point is 110 to 112 °C.

What does the source list for C/C(=N\OCCN)c1ccc2nnn(Cc3ccc4ncccc4c3)c2n1 [Example 63, 1-(3-(quinolin-6-ylmethyl)-3H-[1,2,3]triazolo[4,5-b]pyridin-5-yl)ethanone O-2-aminoethyl oxime]?
inhibition at 0.1 µM (MKN-45; MKN-45, Table 4A): < 25%; GI50 (MKN-45; MKN-45, Table 4A): 250 to 1000 nM; pIC50 ([2]; Table 4A): 7.30 to 7.60; inhibition ([1]; Table 4A): 75 to 100%

For CC(C)(CO)ONC(=O)c1ccc(-c2ccc3nnn(Cc4ccc5ncccc5c4)c3n2)cc1Cl [Example 40, 2-chloro-N-(1-hydroxy-2-methylpropan-2-yloxy)-4-(3-(quinolin-6-ylmethyl)-3H-[1,2,3]triazolo[4,5-b]pyridin-5-yl)benzamide], which inhibition at 0.1 µM ([1]; Table 4A) is on record?
The inhibition at 0.1 µM was 75 to 100%.

And the melting point?
Its melting point is 148 to 150 °C.

What does the source list for CNC(=O)c1ccc(-c2ccc3ncn(Cc4ccc5ncccc5c4)c3n2)cc1C [Example 1030, 2,N-Dimethyl-4-(3-quinolin-6-ylmethyl-3H-imidazo[4,5-b]pyridin-5-yl)-benzamide]?
inhibition at 0.1 µM ([1]; Table 4C): < 25%; melting point: 118 to 120 °C

What does the source list for Cc1cc(-c2ccc3ncn(Cc4cc5cccnc5cc4F)c3n2)ccc1C(N)=O [Example 1025, 4-[3-(7-Fluoro-quinolin-6-ylmethyl)-3H-imidazo[4,5-b]pyridin-5-yl]-2-methyl-benzamide]?
GI50 (MKN-45; MKN-45, Table 4C): 50 to 100 nM; pIC50 ([2]; Table 4C): > 7.60; inhibition at 0.1 µM ([1]; Table 4C): 75 to 100%

Which inhibition at 0.1 µM ([1]; Table 4A) does the source give for CC(=O)OCCONC(=O)c1ccc(-c2ccc3nnn(Cc4ccc5ncccc5c4)c3n2)cc1Cl [Example 11, 2-(2-chloro-4-(3-(quinolin-6-ylmethyl)-3H-[1,2,3]triazolo[4,5-b]pyridin-5-yl)benzamidooxy)ethyl acetate] here?
Its inhibition at 0.1 µM is 75 to 100%.

And the melting point?
Its melting point is 168 to 170 °C.

Which inhibition at 0.1 µM (MKN-45; MKN-45, Table 4B) does the source give for CN(C)CCNC(=O)c1c(F)cc(-c2ccc3ncn(Cc4ccc5ncccc5c4)c3n2)cc1F [Example 104, N-(2-(dimethylamino)ethyl)-2,6-difluoro-4-(3-(quinolin-6-ylmethyl)-3H-imidazo[4,5-b]pyridin-5-yl) benzamide] here?
Its inhibition at 0.1 µM is < 25%.

And the pIC50 ([2]; Table 4B)?
Its pIC50 is 6.60 to 7.00.

And the inhibition ([1]; Table 4B)?
Its inhibition is 50 to 75%.

For O=C(NOCCO)c1c(F)cc(-c2ccc3nnn(Cc4ccc5ncsc5c4)c3n2)cc1F [Example 19, 4-(3-(benzo[d]thiazol-6-ylmethyl)-3H-[1,2,3]triazolo[4,5-b]pyridin-5-yl)-2,6-difluoro-N-(2-hydroxyethoxy)benzamide], which inhibition at 0.1 µM (MKN-45; MKN-45, Table 4A) is on record?
The inhibition at 0.1 µM was 25 to 50%.

What about the GI50 (MKN-45; MKN-45, Table 4A) of the same molecule?
The GI50 was 50 to 100 nM.

And the pIC50 ([2]; Table 4A)?
The pIC50 was 7.30 to 7.60.

What about the inhibition at 0.1 µM ([1]; Table 4A) of the same molecule?
The inhibition at 0.1 µM was 75 to 100%.

And the melting point?
The melting point was 202 to 205 °C.
